Results from a melting point compilation (Tetko et al.; mined from patent text by program, amines drawn as free bases though some values may be those of a salt).

With `COC(=O)N1CCCSC1=C[N+](=O)[O-]` as the compound, how does the melting point read?
The melting point was 93 to 95 °C.

For `O=C(c1ccc(Cl)cc1)c1nccs1`, which melting point is on record?
The melting point was 101 to 103 °C.

With `Cn1cc(C(=O)O)c(=O)c2cc3cc(F)c(N4CCNC(c5ccco5)C4)cc3nc21` (racemic) as the compound, how does the melting point read?
The melting point was 258 to 260 °C.

With `CCCCOc1cc(C)c(O)cc1C` as the compound, how does the melting point read?
The melting point was 43 to 45 °C.

With `COc1ccc2c(c1OCC#N)CCC=C2` as the compound, how does the melting point read?
Its melting point is 138 to 139 °C.

With `CCOC(=O)c1nc2ccccc2c(=O)n1C` as the compound, how does the melting point read?
The melting point was 48 to 50 °C.

For `C1=C(c2c[nH]c3ccccc23)CCNC1`, which melting point is on record?
The melting point was 185 to 186 °C.

For `COc1ccc(N2CCN(c3ccc(-n4cnn(CC(F)(F)F)c4=O)cc3)CC2)cc1`, which melting point is on record?
Its melting point is 208 °C.

Which melting point does the source give for `CCOC(=O)c1cnc(-c2ccc(Cl)cc2)nc1-c1ccc(OC)c(OC)c1` here?
The melting point was 115 °C.

For `Oc1cc(C(O)C2CCCCC2)c2ccccc2n1` (configuration not stated), which melting point is on record?
The melting point was over 250 °C.

Which melting point does the source give for `CCOC(=O)c1cc(N(C)S(C)(=O)=O)c(C)nc1C(=O)OCC` here?
The melting point was 90 to 93 °C.

For `CC(C)N(CCC(=O)OC1c2ccccc2C(=O)N1c1ccc2ccc(Cl)nc2n1)C(C)C` (configuration not stated), which melting point is on record?
Its melting point is 135 °C.

Which melting point does the source give for `Fc1ccc(CC2CCN(CCOc3ccc4c(c3)=NC(=S)N=4)CC2)cc1` here?
Its melting point is 278 to 280 °C.

Which melting point does the source give for `Cc1nc2c3c(c(C(N)=O)cc2n1C)CCC1(Cc2ccccc2C1)N3` here?
The melting point was 272 to 273 °C.

With `CCS(=O)(=O)N1CCN(Cc2ccc(COc3cccc4c3CN(C3CCC(=O)NC3=O)C4=O)cc2)CC1` (configuration not stated) as the compound, how does the melting point read?
Its melting point is 135 to 137 °C.

Which melting point does the source give for `NS(=O)(=O)c1ccc(-n2nc(C=NOCc3ccccc3)cc2-c2ccc(Cl)cc2)cc1` here?
The melting point was 158 to 159 °C.

For `CCc1nccn1N=Cc1ccc(N(C)C)cc1`, which melting point is on record?
Its melting point is 120 to 121 °C.

With `c1cc(N2CCNCC2)cnn1` as the compound, how does the melting point read?
The melting point was over 300 °C.

Which melting point does the source give for `N#Cc1cnn(-c2ccc(CBr)cc2)n1` here?
The melting point was 147 to 148 °C.

For `COc1ccc2c(c1)CCC1C2CCC2(C)C(O)CCC12` (configuration not stated), which melting point is on record?
The melting point was 121 to 124 °C.

Which melting point does the source give for `O=C(OCc1ccccc1)N1CCC(O)(CNc2ccc(Cl)c(Cl)c2)CC1` here?
Its melting point is 128 to 130 °C.

With `CC1CCc2c(N3CCC(N(C)C)CC3)c(F)cc3c(=O)c(C(=O)O)cn1c23` (configuration not stated) as the compound, how does the melting point read?
Its melting point is 259 to 261 °C.

For `COC(=O)C=Cc1ccc(C(C)(C)C)cc1`, which melting point is on record?
The melting point was 35 °C.

Which melting point does the source give for `ON=C1CCCc2c1c1cccc3c1n2CC3` here?
The melting point was 271 to 272 °C.

Which melting point does the source give for `CNc1nc(-c2cccc(NC(=O)c3ccccc3OCc3ccccc3)c2)c2cc(OC)c(OC)cc2n1` here?
The melting point was 192 to 194 °C.

For `Cc1c(NC(=O)c2ccc(-c3ccccc3F)c(F)c2)ccc2cc(CN3CCCC3)cnc12`, which melting point is on record?
Its melting point is 139 to 140 °C.

With `COc1cccc(C(N)=O)c1SSc1c(OC)cccc1C(N)=O` as the compound, how does the melting point read?
Its melting point is 188 to 189 °C.

With `N#CC(N)c1cccc(Cl)c1` (configuration not stated) as the compound, how does the melting point read?
Its melting point is 31 to 33 °C.

With `Oc1ccc2cc(I)ccc2c1` as the compound, how does the melting point read?
The melting point was 136 to 138 °C.

With `O=C(c1cc(C(F)(F)F)cc(C(F)(F)F)c1)N1CCNCCC1c1ccccc1` (configuration not stated) as the compound, how does the melting point read?
The melting point was 151 to 153 °C.

With `CN1C(=O)C(C)(C)N=C(c2ccccc2Cl)c2cc(N)ccc21` as the compound, how does the melting point read?
The melting point was 85 to 110 °C.

Which melting point does the source give for `CCOC(=O)C1CC12CCN(c1ccc(N3CC(CNC(C)=O)OC3=O)cc1F)CC2` (configuration not stated) here?
The melting point was 104 to 106 °C.

Which melting point does the source give for `O=C1CCC2=C(CCc3c(F)cccc32)N1` here?
Its melting point is 233 to 234 °C.

Which melting point does the source give for `CCC(=O)Nc1ccc(Br)c(-n2nc(CC)n(Cc3ccc(-c4ccccc4S(=O)(=O)NC(=O)OC(C)(C)C)cc3F)c2=O)c1` here?
The melting point was 146 to 148 °C.

For `O=C(O)c1ccc(-n2c(SCc3ccc(Cl)cc3)nc3ccc(Cl)cc32)cc1`, which melting point is on record?
Its melting point is 265 to 266 °C.

Which melting point does the source give for `CN(C)C=C(C#N)S(=O)(=O)c1ccccc1` here?
The melting point was 108 to 110 °C.

For `CC(C)(C)OC(=O)NCCNC(=O)c1cccc2c1c(C(=O)C(=O)NC1=CC(=O)OC1)cn2Cc1ccc(Cl)cc1`, which melting point is on record?
The melting point was 218 to 219 °C.

Which melting point does the source give for `CCCC(Oc1ccccc1Br)C(=O)O` (configuration not stated) here?
The melting point was 63 °C.

For `O=C(CCCCCOc1ccc(-c2ccccc2)cc1)NO`, which melting point is on record?
Its melting point is 151 to 152 °C.

With `COc1ccc(Nc2cncc(-c3cccc(NC(=O)c4ccccc4)c3)c2)cc1` as the compound, how does the melting point read?
The melting point was 135 to 140 °C.

With `CON(C)C(=O)NC(CS)Cc1ccccc1` (single isomer, unassigned; (+)) as the compound, how does the melting point read?
Its melting point is 50 °C.

With `CN1CCN(S(=O)(=O)c2cc(-c3csc(=Nc4ccccc4)n3C)ccc2Cl)CC1` as the compound, how does the melting point read?
Its melting point is 156 to 158 °C.

With `Cc1c(C(=O)Nc2ccc(-c3ccc(S(=O)(=O)N(C)C(C(=O)O)C(C)C)cc3)cc2)oc2cccc(C(O)CO)c12` (configuration not stated) as the compound, how does the melting point read?
The melting point was 222 to 225 °C.

With `CCc1cc(CC)c2ccc(N)nc2n1` as the compound, how does the melting point read?
The melting point was 187 to 189 °C.

For `CN(c1ccc(OC(F)(F)C(F)F)cc1)c1c([N+](=O)[O-])cc([N+](=O)[O-])cc1C(F)(F)F`, which melting point is on record?
Its melting point is 91 to 92 °C.

Which melting point does the source give for `COC1=CC(OC)(OC)CC=C1C(=O)OCC(=O)c1ccccc1` here?
Its melting point is 97 to 98 °C.

With `O=C(NC(Cc1ccccc1)C(=O)O)c1cc(-c2ccc(OCc3ccccc3)cc2)[nH]n1` (configuration not stated) as the compound, how does the melting point read?
The melting point was 196 to 200 °C.

For `COc1cc(C=CC(=O)Nc2c(CCO)nc3c(C)cc(C)cc3c2-c2ccccc2Cl)ccc1O`, which melting point is on record?
The melting point was 133 to 134 °C.

For `O=[N+]([O-])c1cccn2nc(SCc3ccccc3)nc12`, which melting point is on record?
The melting point was 125 to 126 °C.

For `Cc1cc(C)cc(C(=O)N2CCN(C(=O)CNC3CCN(C(=O)c4ccccc4)CC3)C(c3ccc(Cl)c(Cl)c3)C2)c1` (racemic), which melting point is on record?
The melting point was 94 to 96 °C.

For `COc1ccc(C(=O)Nc2c(Cl)cc(C(=O)O)cc2Cl)c2cc(C(C)C)oc12`, which melting point is on record?
The melting point was 279 °C.

Which melting point does the source give for `COc1cc(C(Cl)(Cl)Cl)cc(OC)n1` here?
Its melting point is 71 to 73 °C.

With `CCOC(=O)/C(=N\O[C@H]1CC[C@H](C)CC1)c1csc(N)n1` as the compound, how does the melting point read?
The melting point was 133 to 135 °C.

Which melting point does the source give for `Cc1ccc(S(=O)(=O)OCCCCO[N+](=O)[O-])cc1` here?
The melting point was 38 to 40 °C.

For `c1ccc(-c2nc(COc3cccc(Cc4nnn[nH]4)c3)cs2)cc1`, which melting point is on record?
The melting point was 160 to 161 °C.

Which melting point does the source give for `Oc1ccc(O)c(O)c1O` here?
Its melting point is 162 to 164 °C.

Which melting point does the source give for `CS(=O)Cc1ccc2oc([N+](=O)[O-])c(-c3ccccc3)c2c1` (configuration not stated) here?
The melting point was 162 to 165 °C.

For `COC(=O)C1Cc2cc(-c3ccc(C(C)O)cc3)ccc2O1` (configuration not stated), which melting point is on record?
The melting point was 98 to 100 °C.

Which melting point does the source give for `O=[N+]([O-])c1cc(Br)ccc1-c1ccc(Cl)cc1Cl` here?
Its melting point is 112 to 115 °C.

Which melting point does the source give for `CCOC(=O)[C@@H]1CN(CC2=Cc3ccc(OC)cc32)CC[C@H]1O` (relative stereo) here?
Its melting point is 156 to 160 °C.

Which melting point does the source give for `CCCOc1nc2cccc(C(=O)OCC)c2n1Cc1ccc(-c2ccccc2-c2nnn[nH]2)cc1` here?
Its melting point is 157 to 159 °C.

With `ClCc1nn(-c2ccccc2)c2c1CCCC2` as the compound, how does the melting point read?
The melting point was 100 °C.

Which melting point does the source give for `CCOC(=O)c1cc(F)c2c(c1Cl)C(OCCF)CCS2(=O)=O` (configuration not stated) here?
The melting point was 87 to 89 °C.

With `OC1(c2cc3ccccc3s2)CCN(CCC2COc3ccccc3O2)CC1` (configuration not stated) as the compound, how does the melting point read?
Its melting point is 175 to 178 °C.

For `COc1cccc(C2CCCN(C(=O)Cc3cc4ccccc4o3)C2)c1` (configuration not stated), which melting point is on record?
The melting point was 175 to 176 °C.

Which melting point does the source give for `OCc1nccc(N2CCCCC2)c1Br` here?
The melting point was 51 to 53 °C.

For `CC1(C2CCCC2)Cc2cc(NCCO)c(Cl)c(Cl)c2C1=O` (configuration not stated), which melting point is on record?
The melting point was 135 to 136 °C.

For `Cc1cc(O)cc(C)c1C=O`, which melting point is on record?
The melting point was 190 °C.

For `Cc1c(C(=O)O)oc2cc(OCCNC[C@H](O)COc3ccccc3)ccc12`, which melting point is on record?
Its melting point is 110 to 111 °C.

With `CC(C)C[C@H](N)C(=O)NCCCCNC(=O)c1ccccc1` as the compound, how does the melting point read?
The melting point was 146 to 148 °C.

For `CC(C)(C)OC(=O)Oc1ccc(C(=O)OCc2ccccc2)cc1`, which melting point is on record?
The melting point was 81 °C.

With `CC1(C)CCC(=O)Nc2ccc(Nc3ncc(Cl)c(Nc4ccccc4-c4ncccn4)n3)cc21` as the compound, how does the melting point read?
Its melting point is 186 °C.
